Measurements: ChEMBL document CHEMBL1201862, “PubChem BioAssay data set” (2004)
The source made the active and inactive calls.

Tests used:
[1] = target: Heat shock protein HSP 90-alpha (Homo sapiens, UniProt P07900); format: functional, organism-based
[2] = target: T1, Polyadenylate-binding protein 1 (Homo sapiens, UniProt P11940); experiment: PABP1 MLLE–PAM2 binding inhibitor potency, dose response, biochemical, fluorescence polarization, FITC-PAM2 peptide (AID 602259); format: functional; conditions: read-out: IC50_Mean
[3] = target: T1, Polyadenylate-binding protein 1; experiment: PABP1 MLLE–PAM2 interaction inhibitors, dose response, miRNA deadenylation inhibitor project, biochemical, fluorescence polarization, Cy5-PAM2 peptide, secondary (AID 602260); format: functional; conditions: read-out: IC50_Mean
Genome polyprotein = Genome polyprotein (dengue virus type 2, UniProt P29990); experiment: Dengue-2 NS5 methyltransferase inhibitors, primary screen, biochemical, confirmation dose response (AID 588689); format: functional
Large T antigen = Large T antigen (Simian virus 40, UniProt P03070); format: functional, Betapolyomavirus macacae;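 further: Confirmatory-stage PubChem screen for compounds that inhibit SV40 T antigen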
[4] = target: T2, Zinc finger protein mex-5 (Caenorhabditis elegans, UniProt Q9XUB2); experiment: MEX-5/TCR-2 RNA interaction inhibitors, dose response, biochemical, C. elegans, fluorescence polarization (AID 1960)
T2 sequence (Q9XUB2 whole entry): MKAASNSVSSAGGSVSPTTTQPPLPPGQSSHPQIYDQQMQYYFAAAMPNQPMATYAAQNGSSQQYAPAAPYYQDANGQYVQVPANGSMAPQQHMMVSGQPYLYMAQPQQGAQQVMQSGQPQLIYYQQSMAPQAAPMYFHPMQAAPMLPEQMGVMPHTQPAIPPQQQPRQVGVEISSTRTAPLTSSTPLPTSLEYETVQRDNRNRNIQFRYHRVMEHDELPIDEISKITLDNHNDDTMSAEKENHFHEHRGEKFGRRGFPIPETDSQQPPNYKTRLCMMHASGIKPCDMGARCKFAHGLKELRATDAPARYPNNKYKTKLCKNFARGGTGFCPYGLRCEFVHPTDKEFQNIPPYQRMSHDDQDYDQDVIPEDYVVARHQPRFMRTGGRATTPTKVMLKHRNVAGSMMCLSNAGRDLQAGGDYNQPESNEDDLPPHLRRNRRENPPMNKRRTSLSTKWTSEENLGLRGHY

[5] = target: T3, RNA-binding protein pos-1 (Caenorhabditis elegans, UniProt G5EF15); experiment: inhibitors of POS-1/mex-3 RNA binding, dose response, biochemical, fluorescence polarization (AID 1964);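 further: purified POS-1 fused to maltose binding protein made in E. coli; potency of compounds blocking POS-1 binding to fluorescent RNA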
T3 sequence (G5EF15 whole entry): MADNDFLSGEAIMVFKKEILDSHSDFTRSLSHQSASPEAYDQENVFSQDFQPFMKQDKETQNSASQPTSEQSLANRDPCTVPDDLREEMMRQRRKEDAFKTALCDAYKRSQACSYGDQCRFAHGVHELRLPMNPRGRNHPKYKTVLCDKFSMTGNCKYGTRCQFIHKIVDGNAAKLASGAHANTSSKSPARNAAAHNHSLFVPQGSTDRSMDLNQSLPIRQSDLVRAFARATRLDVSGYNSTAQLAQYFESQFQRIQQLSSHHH

[6] = target: Alkaline phosphatase, placental type (Homo sapiens, UniProt P05187); experiment: PLAP enzyme inhibitors, confirmation, biochemical, luminescence (AID 1512); format: functional
Fatty acid synthase [7] = target: T4, Fatty acid synthase (Homo sapiens, UniProt P49327); experiment: FAS thioesterase domain inhibitors, dose response, biochemical, kinetic fluorescence intensity (AID 624326); format: functional;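 further: rate of fluorescence rise from hydrolysis of a fluorogenic O-methyl fluorescein ester substrate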
Fatty acid synthase [8] = target: T4, Fatty acid synthase; experiment: FAS thioesterase domain inhibitors, dose response, biochemical, endpoint fluorescence intensity, uHTS hits (AID 624327); format: functional;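 further: fluorescence from hydrolysis of an O-methyl fluorescein acyl ester substrate by the enzyme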
[9] = Luminescence Cell-Based Dose Confirmation HTS to Identify Inhibitors of Platelet Dense Granule Release. [Related pubchem assays: 1663 (Primary HTS), 1678 (Summary of Project)]; format: functional
[10] = target: Luciferin 4-monooxygenase (Photinus pyralis, UniProt P08659); experiment: firefly luciferase enzyme inhibitors, dose response, biochemical, luminescence (AID 1891)
Protein RecA = target: T5, Protein RecA (Mycobacterium tuberculosis, UniProt P9WHJ3); experiment: Fluorescence Cell-Free Homogeneous Dose Retest to Identify Inhibitors of RecA-Intein Splicing Activity. [Related pubchem assays (depositor defined):AID2097, AID2223, AID489010, AID492950]; format: functional
T5 sequence (P9WHJ3 whole entry): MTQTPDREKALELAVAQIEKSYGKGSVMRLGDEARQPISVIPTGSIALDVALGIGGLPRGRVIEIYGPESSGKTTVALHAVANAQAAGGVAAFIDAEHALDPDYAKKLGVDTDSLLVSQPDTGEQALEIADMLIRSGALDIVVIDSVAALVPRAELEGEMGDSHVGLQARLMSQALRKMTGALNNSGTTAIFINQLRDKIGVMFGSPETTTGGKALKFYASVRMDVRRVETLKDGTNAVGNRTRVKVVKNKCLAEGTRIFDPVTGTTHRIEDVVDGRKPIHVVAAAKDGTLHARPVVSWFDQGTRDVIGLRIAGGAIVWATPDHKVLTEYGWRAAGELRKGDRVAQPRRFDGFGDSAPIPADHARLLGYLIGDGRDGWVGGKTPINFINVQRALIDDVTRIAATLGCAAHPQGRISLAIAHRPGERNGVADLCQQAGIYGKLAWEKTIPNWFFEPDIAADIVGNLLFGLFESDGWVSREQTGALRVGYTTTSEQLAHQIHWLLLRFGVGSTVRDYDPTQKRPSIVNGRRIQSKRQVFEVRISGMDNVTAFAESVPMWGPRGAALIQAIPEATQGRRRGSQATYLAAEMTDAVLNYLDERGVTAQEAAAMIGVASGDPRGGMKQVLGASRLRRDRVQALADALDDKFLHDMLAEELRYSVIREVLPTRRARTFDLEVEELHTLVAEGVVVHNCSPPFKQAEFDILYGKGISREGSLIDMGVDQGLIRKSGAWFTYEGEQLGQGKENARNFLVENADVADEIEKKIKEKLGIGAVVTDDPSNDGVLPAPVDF

[11] = target: T6, Replicative DNA helicase DnaB (Mycobacterium tuberculosis, UniProt P9WMR3); experiment: DnaB intein splicing inhibitors, dose response, biochemical, cell-free fluorescence (AID 449749); format: functional
T6 sequence (P9WMR3 whole entry): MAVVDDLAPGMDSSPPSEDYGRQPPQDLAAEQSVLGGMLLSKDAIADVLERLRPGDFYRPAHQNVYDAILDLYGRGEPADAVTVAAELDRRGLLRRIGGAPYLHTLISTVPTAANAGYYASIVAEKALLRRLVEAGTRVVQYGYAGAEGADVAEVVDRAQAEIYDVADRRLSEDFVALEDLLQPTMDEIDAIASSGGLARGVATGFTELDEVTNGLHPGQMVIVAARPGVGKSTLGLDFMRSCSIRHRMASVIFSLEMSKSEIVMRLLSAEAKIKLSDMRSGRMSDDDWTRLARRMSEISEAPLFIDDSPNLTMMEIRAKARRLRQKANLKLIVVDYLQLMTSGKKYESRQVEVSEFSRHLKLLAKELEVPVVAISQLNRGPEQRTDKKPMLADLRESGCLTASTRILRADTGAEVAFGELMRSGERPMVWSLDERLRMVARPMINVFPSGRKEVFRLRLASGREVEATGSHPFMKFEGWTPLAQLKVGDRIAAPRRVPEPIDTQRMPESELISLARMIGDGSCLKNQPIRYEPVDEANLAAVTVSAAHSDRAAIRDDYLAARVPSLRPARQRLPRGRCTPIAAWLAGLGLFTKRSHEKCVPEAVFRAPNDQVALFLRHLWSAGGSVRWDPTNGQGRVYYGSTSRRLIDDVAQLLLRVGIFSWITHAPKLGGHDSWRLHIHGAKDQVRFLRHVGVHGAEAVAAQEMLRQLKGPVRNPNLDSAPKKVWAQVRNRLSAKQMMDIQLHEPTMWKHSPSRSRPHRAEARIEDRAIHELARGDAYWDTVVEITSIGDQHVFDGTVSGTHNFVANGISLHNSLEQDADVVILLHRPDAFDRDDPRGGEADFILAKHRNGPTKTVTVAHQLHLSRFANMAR

[12] = target: T7, High affinity choline transporter 1 (Homo sapiens, UniProt Q9GZV3); experiment: CHT inhibitors, dose response, cell-based, 5-point CRC, membrane potential dye (AID 504840); format: functional
T7 sequence (Q9GZV3 whole entry): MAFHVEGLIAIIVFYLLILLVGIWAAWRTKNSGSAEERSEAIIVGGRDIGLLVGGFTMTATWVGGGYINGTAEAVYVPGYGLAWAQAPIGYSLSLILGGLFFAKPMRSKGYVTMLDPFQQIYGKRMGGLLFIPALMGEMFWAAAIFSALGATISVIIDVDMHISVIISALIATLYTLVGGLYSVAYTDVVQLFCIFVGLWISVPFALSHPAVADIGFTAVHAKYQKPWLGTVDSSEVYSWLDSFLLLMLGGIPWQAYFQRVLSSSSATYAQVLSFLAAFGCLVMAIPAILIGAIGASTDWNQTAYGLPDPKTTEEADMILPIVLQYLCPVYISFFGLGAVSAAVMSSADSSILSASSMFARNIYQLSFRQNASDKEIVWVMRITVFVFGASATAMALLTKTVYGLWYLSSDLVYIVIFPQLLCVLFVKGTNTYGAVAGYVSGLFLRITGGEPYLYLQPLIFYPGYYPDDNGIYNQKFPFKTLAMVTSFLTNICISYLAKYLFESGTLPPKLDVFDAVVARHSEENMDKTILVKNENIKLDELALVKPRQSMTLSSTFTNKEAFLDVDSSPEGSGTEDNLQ

[13] = Luminescence Cell-Based Dose Retest to Confirm Inhibitors of Cancer Stem Cells. [Related pubchem assays (depositor defined):AID2717, AID2721]; format: functional; conditions: Homo sapiens
[14] = inhibitors of clade B AD8 Env fusion, dose response, cell-based, cherry-pick (AID 652062); format: functional;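 further: luciferase signal from cell-cell fusion driven by HIV-1 clade B AD8 Env; potency is for inhibitors of fusion seen as a drop in luminescence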
[15] = inhibitors of HIV Env-driven cell fusion, dose response, cherry-pick (AID 652057); format: functional, cell-based
[16] = ZM109 Env clade C HIV-1 fusion inhibitors, dose response, HeLa effector, CEM target cells, luciferase, cherry-pick (AID 652058); format: functional, cell-based

Genome polyprotein, sequence (P29990 2492-3391 limits assumed): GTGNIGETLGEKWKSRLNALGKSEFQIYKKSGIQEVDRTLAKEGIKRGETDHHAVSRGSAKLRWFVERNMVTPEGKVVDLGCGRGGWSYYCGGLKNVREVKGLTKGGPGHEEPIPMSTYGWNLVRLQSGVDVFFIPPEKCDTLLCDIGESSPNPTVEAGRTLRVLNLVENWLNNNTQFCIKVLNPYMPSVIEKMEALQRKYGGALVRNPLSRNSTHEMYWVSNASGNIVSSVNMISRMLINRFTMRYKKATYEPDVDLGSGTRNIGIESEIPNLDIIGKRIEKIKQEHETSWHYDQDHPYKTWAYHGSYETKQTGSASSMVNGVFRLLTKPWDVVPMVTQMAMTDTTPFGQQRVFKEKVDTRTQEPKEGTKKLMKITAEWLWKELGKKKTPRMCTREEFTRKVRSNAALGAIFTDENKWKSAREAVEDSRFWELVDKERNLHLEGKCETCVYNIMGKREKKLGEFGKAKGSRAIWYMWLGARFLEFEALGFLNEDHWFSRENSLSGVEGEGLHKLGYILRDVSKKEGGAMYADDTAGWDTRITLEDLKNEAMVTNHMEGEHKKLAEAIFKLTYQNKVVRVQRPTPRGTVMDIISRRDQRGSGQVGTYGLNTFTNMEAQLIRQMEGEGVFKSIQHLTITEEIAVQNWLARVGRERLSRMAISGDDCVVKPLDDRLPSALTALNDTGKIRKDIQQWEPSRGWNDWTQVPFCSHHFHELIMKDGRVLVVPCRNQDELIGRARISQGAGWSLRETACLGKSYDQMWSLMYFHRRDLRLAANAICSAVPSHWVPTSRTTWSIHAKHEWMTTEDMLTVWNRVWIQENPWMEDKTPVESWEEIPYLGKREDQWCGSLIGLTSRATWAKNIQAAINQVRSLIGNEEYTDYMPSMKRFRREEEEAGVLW
T1 sequence (P11940 whole entry): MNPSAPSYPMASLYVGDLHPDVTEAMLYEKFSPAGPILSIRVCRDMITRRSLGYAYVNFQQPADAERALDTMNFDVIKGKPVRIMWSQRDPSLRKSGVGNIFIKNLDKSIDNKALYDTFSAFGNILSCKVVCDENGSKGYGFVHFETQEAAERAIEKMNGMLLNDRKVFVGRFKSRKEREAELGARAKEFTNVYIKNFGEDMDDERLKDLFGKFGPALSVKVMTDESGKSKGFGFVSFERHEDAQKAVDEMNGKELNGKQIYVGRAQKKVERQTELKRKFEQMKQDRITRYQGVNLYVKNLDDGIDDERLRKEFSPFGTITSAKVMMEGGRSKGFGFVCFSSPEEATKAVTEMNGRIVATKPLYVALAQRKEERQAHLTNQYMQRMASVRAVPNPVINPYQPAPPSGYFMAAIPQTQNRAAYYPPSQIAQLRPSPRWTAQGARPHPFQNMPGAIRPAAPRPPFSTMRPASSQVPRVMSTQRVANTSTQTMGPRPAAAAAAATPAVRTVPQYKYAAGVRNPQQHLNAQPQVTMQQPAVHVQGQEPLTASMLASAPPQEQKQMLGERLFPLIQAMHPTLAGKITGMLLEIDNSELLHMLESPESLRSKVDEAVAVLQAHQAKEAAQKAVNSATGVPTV
T4 sequence (P49327 whole entry, the tested form may be a part): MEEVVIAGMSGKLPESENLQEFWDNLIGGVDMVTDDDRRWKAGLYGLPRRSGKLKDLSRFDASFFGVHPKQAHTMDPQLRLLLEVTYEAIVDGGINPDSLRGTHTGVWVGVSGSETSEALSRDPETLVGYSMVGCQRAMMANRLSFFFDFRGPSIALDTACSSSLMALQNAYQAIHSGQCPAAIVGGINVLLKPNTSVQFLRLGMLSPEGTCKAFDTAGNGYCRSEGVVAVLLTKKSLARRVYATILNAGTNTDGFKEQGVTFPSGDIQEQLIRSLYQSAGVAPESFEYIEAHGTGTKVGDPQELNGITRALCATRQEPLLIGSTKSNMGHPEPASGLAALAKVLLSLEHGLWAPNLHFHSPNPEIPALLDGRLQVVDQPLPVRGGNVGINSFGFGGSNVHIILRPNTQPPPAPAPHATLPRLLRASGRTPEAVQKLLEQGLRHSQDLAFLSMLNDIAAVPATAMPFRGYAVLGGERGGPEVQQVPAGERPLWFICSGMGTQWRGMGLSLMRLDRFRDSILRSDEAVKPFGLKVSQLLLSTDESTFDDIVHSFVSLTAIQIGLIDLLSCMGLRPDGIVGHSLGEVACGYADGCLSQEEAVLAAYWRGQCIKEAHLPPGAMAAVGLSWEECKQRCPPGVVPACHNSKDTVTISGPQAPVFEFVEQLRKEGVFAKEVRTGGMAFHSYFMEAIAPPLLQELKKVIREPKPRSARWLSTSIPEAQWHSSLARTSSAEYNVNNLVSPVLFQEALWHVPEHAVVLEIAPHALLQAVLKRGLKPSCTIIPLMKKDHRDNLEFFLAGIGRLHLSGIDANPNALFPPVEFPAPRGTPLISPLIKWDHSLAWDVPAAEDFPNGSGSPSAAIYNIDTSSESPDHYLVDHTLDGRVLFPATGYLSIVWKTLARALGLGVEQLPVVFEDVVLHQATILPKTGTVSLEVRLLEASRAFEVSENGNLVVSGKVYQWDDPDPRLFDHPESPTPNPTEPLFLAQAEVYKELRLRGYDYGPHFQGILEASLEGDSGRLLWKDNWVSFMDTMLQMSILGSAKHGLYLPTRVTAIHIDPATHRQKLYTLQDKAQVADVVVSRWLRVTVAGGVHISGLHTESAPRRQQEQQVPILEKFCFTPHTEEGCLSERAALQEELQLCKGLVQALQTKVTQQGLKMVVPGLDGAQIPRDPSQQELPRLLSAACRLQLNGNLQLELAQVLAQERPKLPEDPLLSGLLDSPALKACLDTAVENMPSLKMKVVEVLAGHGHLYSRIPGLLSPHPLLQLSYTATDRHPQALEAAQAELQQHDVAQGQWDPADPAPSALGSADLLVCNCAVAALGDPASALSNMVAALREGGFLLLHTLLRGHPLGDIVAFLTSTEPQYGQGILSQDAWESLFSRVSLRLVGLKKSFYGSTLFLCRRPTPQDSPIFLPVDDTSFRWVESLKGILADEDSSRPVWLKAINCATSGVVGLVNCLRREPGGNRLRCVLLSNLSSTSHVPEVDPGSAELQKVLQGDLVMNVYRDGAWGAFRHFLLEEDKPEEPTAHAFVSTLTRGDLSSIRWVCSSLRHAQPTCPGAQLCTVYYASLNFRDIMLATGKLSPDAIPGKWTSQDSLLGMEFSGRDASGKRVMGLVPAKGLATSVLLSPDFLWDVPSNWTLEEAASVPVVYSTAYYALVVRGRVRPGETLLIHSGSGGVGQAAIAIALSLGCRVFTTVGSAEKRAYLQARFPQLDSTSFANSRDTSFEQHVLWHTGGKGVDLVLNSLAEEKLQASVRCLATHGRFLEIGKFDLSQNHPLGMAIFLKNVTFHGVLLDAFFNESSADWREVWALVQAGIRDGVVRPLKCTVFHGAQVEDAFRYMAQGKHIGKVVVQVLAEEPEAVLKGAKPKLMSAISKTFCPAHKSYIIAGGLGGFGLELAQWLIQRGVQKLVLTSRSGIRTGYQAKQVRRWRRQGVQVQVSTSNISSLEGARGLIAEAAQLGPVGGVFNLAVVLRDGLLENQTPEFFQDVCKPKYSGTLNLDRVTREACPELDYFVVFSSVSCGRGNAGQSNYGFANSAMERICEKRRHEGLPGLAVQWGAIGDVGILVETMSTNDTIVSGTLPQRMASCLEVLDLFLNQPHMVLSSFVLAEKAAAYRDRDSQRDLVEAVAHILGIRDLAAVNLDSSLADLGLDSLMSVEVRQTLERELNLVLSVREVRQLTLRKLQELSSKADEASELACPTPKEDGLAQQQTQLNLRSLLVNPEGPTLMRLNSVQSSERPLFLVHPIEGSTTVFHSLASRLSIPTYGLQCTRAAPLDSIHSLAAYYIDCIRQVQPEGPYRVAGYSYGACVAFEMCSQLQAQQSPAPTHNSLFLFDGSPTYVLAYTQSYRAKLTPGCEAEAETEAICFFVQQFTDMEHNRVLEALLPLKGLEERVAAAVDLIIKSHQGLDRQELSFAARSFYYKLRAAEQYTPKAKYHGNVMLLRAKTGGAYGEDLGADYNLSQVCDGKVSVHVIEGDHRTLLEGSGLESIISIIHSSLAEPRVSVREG
Alkaline phosphatase, placental type, sequence (P05187 whole entry, the tested form may be a part): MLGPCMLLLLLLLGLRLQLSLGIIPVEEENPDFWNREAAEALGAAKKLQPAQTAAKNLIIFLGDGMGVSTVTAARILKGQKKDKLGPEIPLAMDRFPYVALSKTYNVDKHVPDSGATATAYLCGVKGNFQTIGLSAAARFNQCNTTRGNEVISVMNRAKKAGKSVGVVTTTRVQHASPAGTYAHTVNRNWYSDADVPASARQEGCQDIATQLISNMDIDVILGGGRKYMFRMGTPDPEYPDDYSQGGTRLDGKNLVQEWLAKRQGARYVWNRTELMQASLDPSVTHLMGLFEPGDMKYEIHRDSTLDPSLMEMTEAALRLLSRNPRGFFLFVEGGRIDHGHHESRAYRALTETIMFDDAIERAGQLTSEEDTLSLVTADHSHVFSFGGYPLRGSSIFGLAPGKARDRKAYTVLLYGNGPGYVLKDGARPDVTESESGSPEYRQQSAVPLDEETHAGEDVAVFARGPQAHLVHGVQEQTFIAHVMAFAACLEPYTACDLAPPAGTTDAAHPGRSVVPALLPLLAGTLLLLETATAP

## O=C(/C=C/c1cccc([N+](=O)[O-])c1)c1ccco1
[1]
  AC50: 4 µM (active)

## COC(=O)c1sc(=S)sc1C(=O)OC
[2]
  IC50: > 66 µM (inactive)
[3]
  IC50: > 66 µM (inactive)

## C#CCOc1ccc(/C=C2/C(=O)ON=C2C)cc1OCC
Genome polyprotein
  IC50: > 100 µM (active)

## CCCSc1nc(O)c(C(c2ccc(OC)c(O)c2)c2c(O)nc(SCCC)n(C)c2=O)c(=O)n1C
Genome polyprotein
  IC50: 42.1 µM (active)
Large T antigen
  IC50: > 100 µM (active)

## CCN(CC)CCCNC(=O)CCC(=O)NNc1nc2ccccc2c2nc(C)nn12
[4]
  EC50: 0.93 µM (active)
[5]
  EC50: 160 µM (active)
[6]
  IC50: > 100 µM (inactive)

## COc1ccc([N+](=O)[O-])cc1NC(=O)CC(c1ccccc1)c1ccccc1
Fatty acid synthase [7]
  IC50: 32.8 µM (inactive)
Fatty acid synthase [8]
  IC50: 60.1 µM (inactive)

## Cc1ccc(OCCOc2cccc(C=C3C(=O)NC(=O)NC3=O)c2)c(C)c1
Genome polyprotein
  IC50: 35.5 µM (active)

## CC1(C)N=C(SCC(=O)Nc2ccccc2)C(c2ccc(Cl)cc2)=N1
[2]
  IC50: > 66 µM (inactive)
[3]
  IC50: > 66 µM (inactive)

## COc1ccc(-c2nnc3n(CCc4ccccc4)c(=O)c4ccccc4n23)c(OC)c1
[1]
  AC50: 7.83 µM (active)
[9]
  EC50: > 112 µM (not active)
[10]
  EC50: > 112 µM (not active)

## CCCCCCCCNC(=O)/C(C#N)=C/c1ccccc1[N+](=O)[O-]
[1]
  AC50: 4.28 µM (active)
Protein RecA
  EC50: 3.79 µM (active)
Fatty acid synthase [7]
  IC50: 5.82 µM (active)
[11]
  AC50: 1.98 µM (active)
Fatty acid synthase [8]
  IC50: 8.41 µM (active)

## CC(C)c1ccccc1NC(=O)COC(=O)c1cc([N+](=O)[O-])ccc1N1CCOCC1
Fatty acid synthase [7]
  IC50: 2.46 µM (active)
Fatty acid synthase [8]
  IC50: 2.95 µM (active)

## Cc1cccc(-n2cc(CN3CCN(Cc4nccn4C)CC3)c(-c3cccc(F)c3)n2)c1
[12]
  IC50: 13.5 µM (active)

## CC(=O)n1c2ccccc2c2c1c1ccccc1n2C
[2]
  IC50: > 66 µM (inactive)
[3]
  IC50: > 66 µM (inactive)

## Cc1ccc(N2C(=O)CC(SCC(=O)Nc3ccc(S(N)(=O)=O)cc3)C2=O)cc1 (centres undefined)
[2]
  IC50: > 66 µM (inactive)
[3]
  IC50: > 66 µM (inactive)

## COc1ccc(C(=O)COC(=O)c2cc([N+](=O)[O-])ccc2N2CCOCC2)c(OC)c1
[1]
  AC50: 10.2 µM (active)
Fatty acid synthase [7]
  IC50: 1.63 µM (active)
Fatty acid synthase [8]
  IC50: 1.66 µM (active)

## CCC(C)N/C=C1/C(=O)NC(=O)N(c2ccccc2)C1=O (centres undefined)
[2]
  IC50: > 66 µM (inactive)
[3]
  IC50: > 66 µM (inactive)

## O=C(NCCN1CCCC1)c1ccc2c(c1)N(Cc1cccc(Cl)c1)C(=O)c1ccccc1S2(=O)=O
[12]
  IC50: 11.5 µM (active)
[13]
  AC50: > 195 µM (inactive)

## COc1ccc2c(c1)OC[C@H]1[C@H]2N2C(=O)c3cc(C)ccc3NC(=O)[C@@]2(C)[C@H]1c1ccccc1
[1]
  AC50: 1.86 µM (active)

## Cc1noc(C)c1S(=O)(=O)N(C)C[C@@H]1Oc2ccc(NC(=O)Nc3cccc4ccccc34)cc2CC(=O)N([C@H](C)CO)C[C@@H]1C
[14]
  AC50: 2.17 µM (active)
[15]
  AC50: < 0.285 µM (active)
[16]
  AC50: < 0.285 µM (active)

## CCc1cnc(N2[C@@H](C#N)[C@H](c3ccc(C#Cc4ccccc4F)cc3)[C@@H]2CO)s1
[14]
  AC50: 24.4 µM (active)
[15]
  AC50: 39.8 µM (active)
[16]
  AC50: 5.29 µM (active)

## Cc1cc(-c2ccc(/C=N/n3cnnc3)o2)c(C)c([N+](=O)[O-])c1
Fatty acid synthase [7]
  IC50: 9.46 µM (active)
Fatty acid synthase [8]
  IC50: 12.5 µM (active)

## C/C(=N\NC(=O)c1nnn(-c2nonc2N)c1-c1ccc(Cl)c(Cl)c1)c1ccncc1
Fatty acid synthase [7]
  IC50: 20.9 µM (inactive)
Fatty acid synthase [8]
  IC50: 28 µM (inactive)

## Cn1nnc2c(C(N)=O)ncn2c1=O [TEMOZOLOMIDE]
[2]
  IC50: 43.4 µM (inactive)
[3]
  IC50: > 66 µM (inactive)
